The values below come from patent US20230113037A1 (Bayer Aktiengesellschaft, priority 2019, published 2023).

Usually IC50 stands for the concentration that gives 50% inhibition.

Test [1] concerns the target T1, AHR (Homo sapiens, UniProt P35869).
T1 construct: U87 MG glioblastoma cells (ATCC #HTB-14) endogenously expressing AHR; endogenous in cells; host or cells: U87 MG glioblastoma cells (ATCC #HTB-14)
T1 sequence (P35869 11-848): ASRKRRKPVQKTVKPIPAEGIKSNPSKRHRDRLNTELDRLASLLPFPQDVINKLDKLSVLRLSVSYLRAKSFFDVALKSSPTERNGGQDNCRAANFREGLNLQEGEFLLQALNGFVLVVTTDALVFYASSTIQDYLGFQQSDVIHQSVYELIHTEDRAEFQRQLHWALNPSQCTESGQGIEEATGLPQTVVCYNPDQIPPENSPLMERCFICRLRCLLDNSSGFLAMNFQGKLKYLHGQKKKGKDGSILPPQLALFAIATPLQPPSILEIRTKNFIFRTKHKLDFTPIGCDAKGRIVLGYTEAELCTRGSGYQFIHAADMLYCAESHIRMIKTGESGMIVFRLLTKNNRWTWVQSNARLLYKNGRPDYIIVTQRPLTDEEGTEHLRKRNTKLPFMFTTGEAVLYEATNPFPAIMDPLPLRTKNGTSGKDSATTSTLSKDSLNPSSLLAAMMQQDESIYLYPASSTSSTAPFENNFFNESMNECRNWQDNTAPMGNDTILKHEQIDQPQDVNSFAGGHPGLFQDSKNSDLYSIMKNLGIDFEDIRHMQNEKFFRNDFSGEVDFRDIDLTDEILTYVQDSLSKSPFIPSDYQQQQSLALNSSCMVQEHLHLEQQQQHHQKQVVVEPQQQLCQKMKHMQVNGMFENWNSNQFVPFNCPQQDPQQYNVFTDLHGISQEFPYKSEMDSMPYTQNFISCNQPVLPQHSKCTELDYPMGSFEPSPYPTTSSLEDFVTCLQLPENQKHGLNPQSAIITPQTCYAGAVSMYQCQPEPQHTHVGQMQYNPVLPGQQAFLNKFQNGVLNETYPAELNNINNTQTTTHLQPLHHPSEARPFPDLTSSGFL
Kind of test: In vitro assay 1: antagonism in human cell line (AHR transactivation, firefly luciferase reporter, kynurenic acid prestimulated). In kind it is cell-based. The settings on record: AHR Antagonism Human IC50 [M]. As for the experimental part:
Examples were tested in selected biological assays one or more times. When tested more than once, data are reported as either average values or as median values, wherein • the average value, also referred to as the arithmetic mean value, represents the sum of the values obtained divided by the number of times tested, and • the median value represents the middle number of the group of values when ranked in ascending or descending order. If the number of values in the data set is odd, the median is the middle value. If the number of values in the data set is even, the median is the arithmetic mean of the two middle values.
Transactivation assays were carried out in U87 MG glioblastoma cells (ATCC #HTB-14) endogenously expressing AHR. In addition the cells were stably transfected with an AHR inducible firefly luciferase reporter gene construct that carried AHR-binding sites (DRE) in its promoter and a renilla reporter gene construct with constitutively active promoter. Kynurenic acid is an endogenous AHR activating ligand and was used to prestimulate test cells prior to testing the antagonistic properties of compounds.
As positive inhibition control cells supplemented with 150 μM kynurenic acid were incubated in presence of 5 μM Staurosporin. Normalization was done by positive and negative controls.
Firefly luciferase and Renilla activity was determined by the DualGlo Luciferase Assay System (Promega, #2920). Renilla activity was used to assess toxic effects of compounds.
Background: Reporter assays use an easily measured gene product as a stand-in for the process of interest.

Test [2] has as its target T2, AHR (Mus musculus, UniProt P30561).
T2 sequence (P30561 1-848 P471L/N533S/M589L): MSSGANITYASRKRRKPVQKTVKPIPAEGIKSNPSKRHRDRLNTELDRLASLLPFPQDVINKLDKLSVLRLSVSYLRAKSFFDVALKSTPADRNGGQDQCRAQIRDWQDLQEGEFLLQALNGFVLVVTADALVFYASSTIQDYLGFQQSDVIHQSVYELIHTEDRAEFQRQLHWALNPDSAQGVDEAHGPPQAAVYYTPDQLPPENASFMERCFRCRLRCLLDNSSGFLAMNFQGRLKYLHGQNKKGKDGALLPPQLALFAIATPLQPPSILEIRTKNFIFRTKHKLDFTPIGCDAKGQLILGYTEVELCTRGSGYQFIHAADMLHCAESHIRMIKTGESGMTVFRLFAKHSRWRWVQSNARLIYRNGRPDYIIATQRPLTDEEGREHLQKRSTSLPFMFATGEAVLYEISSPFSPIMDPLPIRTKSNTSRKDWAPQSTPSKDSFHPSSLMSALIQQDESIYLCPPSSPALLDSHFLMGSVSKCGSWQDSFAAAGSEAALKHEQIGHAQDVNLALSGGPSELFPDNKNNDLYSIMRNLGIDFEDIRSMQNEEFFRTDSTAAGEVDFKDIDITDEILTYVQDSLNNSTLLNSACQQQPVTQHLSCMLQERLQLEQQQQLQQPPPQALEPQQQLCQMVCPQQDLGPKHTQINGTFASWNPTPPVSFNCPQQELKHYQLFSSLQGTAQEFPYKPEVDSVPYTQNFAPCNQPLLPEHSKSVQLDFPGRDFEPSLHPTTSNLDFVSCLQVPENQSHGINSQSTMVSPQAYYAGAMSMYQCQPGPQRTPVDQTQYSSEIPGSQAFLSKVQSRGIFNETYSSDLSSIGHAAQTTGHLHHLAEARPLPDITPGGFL
Kind of test: In vitro assay 3: antagonism in mouse cell line (AHR transactivation, firefly luciferase reporter, kynurenic acid prestimulated). In kind it is cell-based. The settings on record: 200 μM kynurenic acid, 20 hours, read-out: AHR Antagonism Mouse IC50. The method in brief:
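Luminescence from an AHR-dependent DRE-luciferase reporter, stably integrated in mouse cells, quantifies blockade of kynurenic acid-driven activation. Unstimulated cells mark maximal inhibition; normalization uses both control types, and multiply tested compounds carry mean or median values.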

The structures appear in SMILES notation. Like-named read-outs stand apart in the source and are kept apart here. Bounds are passed on as bounds.

Take `CN1CCCC[C@H](Nc2nc3ccccc3c3nc(-c4ccc(Cl)cc4OC(F)F)nn23)C1=O` [Example 530, (3S)-3-({2-[4-chloro-2-(difluoromethoxy)phenyl][1,2,4]triazolo[1,5-c]quinazolin-5-yl}amino)-1-methylazepan-2-one]: at AHR [1], the IC50 is over 2e-05 M. Take `Cn1cc(-c2nc3c4ccccc4nc(NC4CNCCNC4=O)n3n2)cn1` (single isomer, unassigned) [Example 24, 6-{[2-(1-methyl-1H-pyrazol-4-yl)[1,2,4]triazolo[1,5-c]quinazolin-5-yl]amino}-1,4-diazepan-5-one]: the IC50 at AHR [1] was over 4e-05 M. In turn, `Cn1cc(-c2nc3c4cccc(C5(C(F)(F)F)CC5)c4nc(N[C@@H]4CNCCNC4=O)n3n2)cn1` [Example 430] showed an IC50 on AHR [1] of 3.22e-07 M. The same measure, in the same setting: the same measure for `CCOc1ccccc1-c1nc2c3ccccc3nc(N[C@@H]3CCCCNC3=O)n2n1` [Example 198, (3R)-3-{[2-(2-ethoxyphenyl)[1,2,4]triazolo[1,5-c]quinazolin-5-yl]amino}azepan-2-one]: 1.82e-06 M; for `CCNC(=O)C(CC)Nc1nc2ccccc2c2nc(-c3cccc(OC(F)(F)F)c3)nn12` (single isomer, unassigned) [Example 320, N-ethyl-2-({2-[3-(trifluoromethoxy)phenyl][1,2,4]triazolo[1,5-c]quinazolin-5-yl}amino)butanamide]: 1.21e-06 M. Same read-out and setting: the same measure for `O=C1NCCCC[C@H]1Nc1nc2ccccc2c2nc(-c3ccc(Cl)cc3OC(F)F)nn12` [Example 525, (3R)-3-({2-[4-chloro-2-(difluoromethoxy)phenyl][1,2,4]triazolo[1,5-c]quinazolin-5-yl}amino)azepan-2-one]: 9.92e-10 M; for `COc1ccc(-c2nc3c4cc(C5CC5)ccc4nc(N[C@@H]4CCCCNC4=O)n3n2)cc1` [Example 547, (3R)-3-{[9-cyclopropyl-2-(4-methoxyphenyl)[1,2,4]triazolo[1,5-c]quinazolin-5-yl]amino}azepan-2-one]: over 5.71e-06 M; for `CC[C@@H](Nc1nc2ccccc2c2nc(-c3ccc(Cl)cc3OC(F)F)nn12)C(N)=O` [Example 531, (2R)-2-({2-[4-chloro-2-(difluoromethoxy)phenyl][1,2,4]triazolo[1,5-c]quinazolin-5-yl}amino)butanamide]: 1.29e-09 M. Compound `Cn1cc(-c2nc3c4ccc(Br)cc4nc(N[C@@H]4CCCCNC4=O)n3n2)cn1` [Example 230, (3R)-3-{[8-bromo-2-(1-methyl-1H-pyrazol-4-yl)[1,2,4]triazolo[1,5-c]quinazolin-5-yl]amino}azepan-2-one] displayed an IC50 on AHR [1] of 1.97e-06 M. With `Cn1cc(-c2nc3c4c(C5CC5)cccc4nc(N[C@@H]4CCCCNC4=O)n3n2)cn1` [Example 177, (3R)-3-{[10-cyclopropyl-2-(1-methyl-1H-pyrazol-4-yl)[1,2,4]triazolo[1,5-c]quinazolin-5-yl]amino}azepan-2-one], the IC50 on AHR [1] stood at 7.35e-07 M. In turn, `C[C@@H](Nc1nc2c(C(F)(F)F)cccc2c2nc(-c3cnn(C)c3)nn12)C(=O)O` [Example 869, N-[2-(1-methyl-1H-pyrazol-4-yl)-7-(trifluoromethyl)[1,2,4]triazolo[1,5-c]quinazolin-5-yl]-D-alanine] had an IC50 at AHR [1] (firefly luciferase reporter) of over 2e-05 M. Compound `Cc1cc(-c2nc3c4ccccc4nc(N[C@@H]4CCCCNC4=O)n3n2)cs1` [Example 352, (3R)-3-{[2-(5-methylthiophen-3-yl)[1,2,4]triazolo[1,5-c]quinazolin-5-yl]amino}azepan-2-one] returned an IC50 at AHR [1] of 9.72e-10 M. At AHR [1], `O=C1NCCCC[C@H]1Nc1nc2ccccc2c2nc(-c3ccc(F)cc3)nn12` [Example 74, (3R)-3-{[2-(4-fluorophenyl)[1,2,4]triazolo[1,5-c]quinazolin-5-yl]amino}azepan-2-one] gave an IC50 of 1.62e-10 M. For the compound `O=C1NCCCC[C@H]1Nc1nc2ccccc2c2nc(-c3ccccc3)nn12` [Example 5, (3R)-3-[(2-phenyl[1,2,4]triazolo[1,5-c]quinazolin-5-yl)amino]azepan-2-one], it took 3.4e-10 M to reach half-maximal inhibition on AHR [1] (IC50). For `COc1ccc(-c2nc3c4ccccc4nc(N[C@H](CO)C(N)=O)n3n2)cc1` [Example 26, N^2-[2-(4-methoxyphenyl)[1,2,4]triazolo[1,5-c]quinazolin-5-yl]-D-serinamide], the IC50 at AHR [2] (mouse Hepa 1c1c7 cells) came to 16.7 nM. Same read-out and setting: as for `O=C1NCCC[C@H]1Nc1nc2c(Br)cccc2c2nc(-c3ccc(F)cc3)nn12` [Example 226, (3R)-3-{[7-bromo-2-(4-fluorophenyl)[1,2,4]triazolo[1,5-c]quinazolin-5-yl]amino}piperidin-2-one], the figure is 1.53 nM.

In the case of `O=C1NCCCC[C@H]1Nc1nc2c(Br)cccc2c2nc(-c3ccc(Cl)cc3)nn12` [Example 830, (3R)-3-{[7-bromo-2-(4-chlorophenyl)[1,2,4]triazolo[1,5-c]quinazolin-5-yl]amino}azepan-2-one], on AHR [2] (Hepa 1c1c7 cells, firefly luciferase reporter), the IC50 is over 20000 nM.

For `O=C1NCCC[C@H]1Nc1nc2ccccc2c2nc(-c3ccc(Cl)cc3OC(F)F)nn12` [Example 527, (3R)-3-({2-[4-chloro-2-(difluoromethoxy)phenyl][1,2,4]triazolo[1,5-c]quinazolin-5-yl}amino)piperidin-2-one], at AHR [2] (mouse Hepa 1c1c7 cells), the IC50 came out at 5.53 nM. Turning to `O=C1NCCNCC1Nc1nc2cccc(Cl)c2c2nc(-c3ccc(F)cc3)nn12` (single isomer, unassigned) [Example 298, 6-{[10-chloro-2-(4-fluorophenyl)[1,2,4]triazolo[1,5-c]quinazolin-5-yl]amino}-1,4-diazepan-5-one], on AHR [2] (mouse Hepa 1c1c7 cells), the IC50 is 63.3 nM. Take `COc1ccc(-c2nc3c4cc(Br)cc(Br)c4nc(N[C@@H]4CCCCNC4=O)n3n2)cc1` [Example 593, (3R)-3-{[7,9-dibromo-2-(4-methoxyphenyl)[1,2,4]triazolo[1,5-c]quinazolin-5-yl]amino}azepan-2-one]: the IC50 at AHR [2] (mouse Hepa 1c1c7 cells) worked out at 82.1 nM. For `O=C1NCCNC[C@H]1Nc1nc2ccccc2c2nc(-c3ccc(C(F)(F)F)cc3)nn12` [Example 259, (6R)-6-({2-[4-(trifluoromethyl)phenyl][1,2,4]triazolo[1,5-c]quinazolin-5-yl}amino)-1,4-diazepan-5-one], the IC50 at AHR [2] (mouse Hepa 1c1c7 cells) is 0.644 nM. Regarding `Cn1cc(-c2nc3c4c(C5CC5)cccc4nc(NC4CNCCNC4=O)n3n2)cn1` (stereo not shown) [Example 294, 6-{[10-cyclopropyl-2-(1-methyl-1H-pyrazol-4-yl)[1,2,4]triazolo[1,5-c]quinazolin-5-yl]amino}-1,4-diazepan-5-one], at AHR [2] (mouse Hepa 1c1c7 cells), the IC50 worked out at 5430 nM.
